Data from patent publication US8367873B2, “Phenyl-substituted bicyclooctane-1,3-dione derivatives” (Bayer Cropscience AG, priority 2008, dated 2013).

Assays:
Format in all cases: in vivo
Setaria viridis [1] = test: Herbicidal post-emergence action; details: post-emergence method, 80 g/ha
Method in brief: (§1)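 Greenhouse-grown weeds were treated post-emergence at the one-leaf stage, two to three weeks after sowing in sandy loam. Compounds formulated as WP were sprayed at various rates in 600 l/ha water with 0.2% wetting agent. Damage was scored visually after about three weeks versus untreated controls (0% = like control, 100% = dead).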

Alopecurus myosuroides [2] = test: Herbicidal post-emergence action; details: post-emergence method, 80 g/ha
Method in brief: as §1

Echinocloa crus-galli [3] = test: Herbicidal post-emergence action; details: post-emergence method, 80 g/ha
Method in brief: as §1

Lolium multiflorum [4] = test: Herbicidal post-emergence action; details: post-emergence method, 80 g/ha
Method in brief: as §1

[5] = system: monocotylidonous and dicotylidonous weed and crop plants; test: Herbicidal pre-emergence action (other test plants); details: pre-emergence method, 80 g/ha, greenhouse, visual assessment vs untreated controls
Method in brief: (§2)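 Seeds sown in sandy loam and covered with soil; WP-formulated compounds applied as aqueous suspension (600 l/ha water, 0.2% wetting agent) to the soil surface at various rates. Greenhouse-grown; emergence damage scored visually after three weeks versus untreated controls (0% = like control, 100% = plants dead).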

[6] = system: monocotylidonous and dicotylidonous weed and crop plants; test: Herbicidal post-emergence action (other test plants); details: post-emergence method, 80 g/ha
Method in brief: as §1

Setaria viridis [7] = test: Herbicidal pre-emergence action; details: pre-emergence method, 80 g/ha, greenhouse, visual assessment vs untreated controls
Method in brief: as §2

Alopecurus myosuroides [8] = test: Herbicidal pre-emergence action; details: pre-emergence method, 80 g/ha, greenhouse, visual assessment vs untreated controls
Method in brief: as §2

Echinocloa crus-galli [9] = test: Herbicidal pre-emergence action; details: pre-emergence method, 80 g/ha, greenhouse, visual assessment vs untreated controls
Method in brief: as §2

Lolium multiflorum [10] = test: Herbicidal pre-emergence action; details: pre-emergence method, 80 g/ha, greenhouse, visual assessment vs untreated controls
Method in brief: as §2

Row | SMILES | herbicidal effect against SETVI (Setaria viridis) (Setaria viridis [1]) [%] | herbicidal effect against ALOMY (Alopecurus myosuroides) (Alopecurus myosuroides [2]) [%] | herbicidal effect against ECHCG (Echinochloa crus-galli) (Echinocloa crus-galli [3]) [%] | herbicidal effect against LOLMU (Lolium multiflorum) (Lolium multiflorum [4]) [%] | herbicidal effect AVEFA [5] [%] | herbicidal effect against AVEFA (Avena fatua) [6] [%] | herbicidal effect SETVI (Setaria viridis [7]) [%] | herbicidal effect ALOMY (Alopecurus myosuroides [8]) [%] | herbicidal effect ECHCG (Echinocloa crus-galli [9]) [%] | herbicidal effect LOLMU (Lolium multiflorum [10]) [%]
1 | CCc1cc(C)cc(CC)c1C1=C(OC(=O)COC)C2CC3(CC2C1=O)OCCCO3 (stereo not drawn) [I-b-28] | 100 | 100 | 100 | 100 | 50 | 100 | 70 | 90 | 100 | 100
2 | CCc1cc(C)cc(CC)c1C1=C(OC(=O)C(C)(C)CC)C2CC3(CC2C1=O)OCCCO3 (stereo not drawn) [I-b-30] | 90 | 20 | 100 | 100 | 70 | 100 | 90 | 100 | 100 | 100
3 | C=C1CC2C(=O)C(c3c(C)cc(C)cc3C)=C(OC(=O)C(C)(C)C)C2C1 (stereo not drawn) [I-b-37] | 90 | 0 | 90 | 70 | 40 | 0 | 70 | 90 | 70 | 70
4 | C=C1CC2C(=O)C(c3c(C)cc(C)cc3C)=C(OC(=O)C(C)C)C2C1 (stereo not drawn) [I-b-38] | 90 | 40 | 90 | 70 | 70 | 0 | 80 | 80 | 80 | 60
5 | Cc1cc(C)c(C2=C(OC(=O)C(C)C)C3CC4(CC3C2=O)OCCO4)c(C)c1 (stereo not drawn) [I-b-39] | 90 | 60 | 100 | 100 | 50 | 20 | 0 | 60 | 10 | 80
6 | Cc1cc(C)c(C2=C(OC(=O)C(C)(C)C)C3CC4(CC3C2=O)OCCCCO4)c(C)c1 (stereo not drawn) [I-b-40] | 80 | 40 | 90 | 100 | 50 | 20 | 30 | 90 | 50 | 100
7 | Cc1cc(C)c(C2=C(OC(=O)C(C)C)C3CC4(CC3C2=O)OCCCCO4)c(C)c1 (stereo not drawn) [I-b-41] | 80 | 40 | 100 | 100 | 40 | 0 | 50 | 50 | 0 | 100
8 | Cc1cc(C)c(C2=C(OC(=O)C(C)C)C3CC4(CC3C2=O)OCC(C)CO4)c(C)c1 (stereo not drawn) [I-b-43] | 100 | 100 | 90 | 100 | 40 | 80 | 60 | 90 | 20 | 90
9 | C=C1CC2C(=O)C(c3c(C)cc(C)cc3OC)=C(OC(=O)C(C)C)C2C1 (stereo not drawn) [I-b-62] | 90 | 30 | 100 | 90 | 40 | 0 | 80 | 50 | 70 | 70
10 | COc1cc(C)cc(C)c1C1=C(OC(=O)C(C)C)C2CC3(CC2C1=O)OCCCO3 (stereo not drawn) [I-b-64] | 100 | 100 | 100 | 100 | 50 | 100 | 90 | 60 | 0 | 100
11 | COc1cc(C)cc(C)c1C1=C(OC(=O)C(C)C)C2CC3(CC2C1=O)OCCO3 (stereo not drawn) [I-b-65] | 100 | 90 | 100 | 100 | 70 | 90 | 70 | 60 | 90 | 100
12 | CCc1cc(C)cc(C)c1C1=C(OC(C)=O)C2CC3(COC(C)(C)O3)CC2C1=O (stereo not drawn) [I-b-66] | 80 | 100 | 100 | 100 | 80 | 90 | 80 | 80 | 100 | 100
13 | CCC(=O)OC1=C(c2c(C)cc(C)cc2CC)C(=O)C2CC3(COC(C)(C)O3)CC12 (stereo not drawn) [I-b-67] | 90 | 100 | 100 | 100 | 90 | 70 | 90 | 90 | 100 | 100
14 | CCc1cc(C)cc(C)c1C1=C(OC(=O)C(C)C)C2CC3(COC(C)(C)O3)CC2C1=O (stereo not drawn) [I-b-69] | 60 | 90 | 100 | 100 | 80 | 10 | 80 | 100 | 100 | 100
15 | CCc1cc(C)cc(C)c1C1=C(OC(=O)C(C)(C)C)C2CC3(COC(C)(C)O3)CC2C1=O (stereo not drawn) [I-b-70] | 40 | 70 | 100 | 100 | 80 | 0 | 90 | 100 | 100 | 100
16 | C=C1CC2C(=O)C(c3c(C)cc(C)cc3CC)=C(OC(=O)C(C)C)C2C1 (stereo not drawn) [I-b-72] | 90 | 0 | 100 | 0 | 60 | 0 | 100 | 80 | 100 | 100
17 | C=C1CC2C(=O)C(c3c(C)cc(C)cc3CC)=C(OC(=O)C(C)(C)C)C2C1 (stereo not drawn) [I-b-73] | 100 | 0 | 100 | 70 | 80 | 0 | 100 | 80 | 90 | 100
18 | CCc1cc(C)cc(C)c1C1=C(OC(=O)C(C)(C)C)C2CC3(CC2C1=O)OCCCO3 (stereo not drawn) [I-b-74] | 80 | 80 | 100 | 100 | 60 | 80 | 70 | 60 | 100 | 100
